The source made the active and inactive calls.
Columns and labels:
Ephrin type-A receptor 4 = Ephrin type-A receptor 4 (Mus musculus, UniProt Q03137); assay: EphA4 ligand-binding antagonists – biochemical, colorimetric, mouse EphA4, primary screen (AID 689); type: functional
[1] = Luminescence Cell-Based Dose Retest to Confirm Inhibitors of Cancer Stem Cells. [Related pubchem assays (depositor defined):AID2717, AID2721]; type: functional, Homo sapiens; details: Homo sapiens
[2] = molecular target: T1, Hepatocyte nuclear factor 4-alpha (Homo sapiens, UniProt P41235); type: functional, cell-based;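 also: biochemical luminescence-based dose-response counterscreen measuring inhibition of HNF4 dimerization, run alongside a screen for blockers of ABHD5–perilipin-5 interaction; split luciferase complementation of HNF4 fusion proteins in cell lysate measuring dimerization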
T1 sequence (P41235 whole entry): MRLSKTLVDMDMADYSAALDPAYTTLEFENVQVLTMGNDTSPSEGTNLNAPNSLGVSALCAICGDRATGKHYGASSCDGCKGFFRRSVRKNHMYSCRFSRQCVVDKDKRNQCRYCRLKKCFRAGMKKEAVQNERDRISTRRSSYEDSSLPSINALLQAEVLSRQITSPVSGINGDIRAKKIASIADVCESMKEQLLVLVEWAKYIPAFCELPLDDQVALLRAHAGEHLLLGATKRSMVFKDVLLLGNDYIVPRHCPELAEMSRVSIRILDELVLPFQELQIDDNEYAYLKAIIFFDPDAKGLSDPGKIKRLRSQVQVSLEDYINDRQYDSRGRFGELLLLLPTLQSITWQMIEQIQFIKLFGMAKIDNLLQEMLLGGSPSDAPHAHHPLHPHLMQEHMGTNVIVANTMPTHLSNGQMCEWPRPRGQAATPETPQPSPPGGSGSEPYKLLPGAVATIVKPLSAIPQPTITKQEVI

Estrogen receptor = molecular target: T2, Estrogen receptor (Homo sapiens, UniProt P03372);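 also: potency for inhibiting coactivator peptide recruitment to the receptor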
T2 sequence (P03372 whole entry): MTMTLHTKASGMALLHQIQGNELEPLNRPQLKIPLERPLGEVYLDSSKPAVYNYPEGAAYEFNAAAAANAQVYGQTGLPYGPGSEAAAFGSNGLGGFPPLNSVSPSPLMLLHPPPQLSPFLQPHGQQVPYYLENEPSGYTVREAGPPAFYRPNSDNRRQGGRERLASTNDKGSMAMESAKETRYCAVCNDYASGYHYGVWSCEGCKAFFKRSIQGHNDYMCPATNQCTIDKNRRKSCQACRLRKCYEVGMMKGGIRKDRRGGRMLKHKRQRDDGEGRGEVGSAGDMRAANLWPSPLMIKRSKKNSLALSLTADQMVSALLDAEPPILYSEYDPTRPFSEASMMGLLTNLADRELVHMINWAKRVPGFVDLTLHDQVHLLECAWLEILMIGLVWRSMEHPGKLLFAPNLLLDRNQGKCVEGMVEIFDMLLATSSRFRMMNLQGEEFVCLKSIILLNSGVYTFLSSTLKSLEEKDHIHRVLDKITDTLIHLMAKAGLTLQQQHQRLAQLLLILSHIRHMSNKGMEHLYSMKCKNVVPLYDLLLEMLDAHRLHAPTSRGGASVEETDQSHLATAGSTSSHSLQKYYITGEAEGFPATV

Estrogen receptor beta = Estrogen receptor beta (Homo sapiens, UniProt Q92731);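 also: recombinant ER-beta bound to coactivator SRC1 peptide in presence of estradiol agonist; inhibitors block coactivator peptide binding and lower the FRET signal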
[3] = molecular target: T3, High affinity choline transporter 1 (Homo sapiens, UniProt Q9GZV3); assay: human choline transporter blockers, potency – cell-based, 5-point CRC, membrane potential dye, dose response (AID 504840); type: functional
T3 sequence (Q9GZV3 whole entry): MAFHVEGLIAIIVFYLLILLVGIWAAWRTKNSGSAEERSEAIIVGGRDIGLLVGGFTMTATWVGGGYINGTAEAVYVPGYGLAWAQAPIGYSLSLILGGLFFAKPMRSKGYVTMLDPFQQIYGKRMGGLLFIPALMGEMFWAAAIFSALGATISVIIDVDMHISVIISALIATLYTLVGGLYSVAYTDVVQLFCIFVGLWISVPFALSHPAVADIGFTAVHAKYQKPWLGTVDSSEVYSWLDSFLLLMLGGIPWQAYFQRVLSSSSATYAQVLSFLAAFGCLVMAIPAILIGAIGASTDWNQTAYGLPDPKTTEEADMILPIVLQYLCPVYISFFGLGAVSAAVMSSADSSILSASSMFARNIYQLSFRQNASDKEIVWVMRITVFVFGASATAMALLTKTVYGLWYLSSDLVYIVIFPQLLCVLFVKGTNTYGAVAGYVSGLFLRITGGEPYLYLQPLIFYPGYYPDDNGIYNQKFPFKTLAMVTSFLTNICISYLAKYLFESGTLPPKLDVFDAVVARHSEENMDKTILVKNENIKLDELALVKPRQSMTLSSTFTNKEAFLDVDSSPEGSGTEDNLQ

[4] = molecular target: Voltage-gated inwardly rectifying potassium channel KCNH2 (Homo sapiens, UniProt Q12809); assay: concentration-dependent hERG rescue from blockers – cell-based, thallium flux, dose response (AID 2121); type: ADME
Cytochrome P450 3A4 = Cytochrome P450 3A4 (Homo sapiens, UniProt P08684);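 also: CYP3A4 tested as one member of a cytochrome P450 panel screen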
[5] = molecular target: T4, Dual specificity protein phosphatase 3 (Homo sapiens, UniProt P51452); assay: VHR1 phosphatase inhibitors, primary screen, biochemical, absorbance, uHTS (AID 1654)
[6] = molecular target: T4, Dual specificity protein phosphatase 3; assay: VHR1 phosphatase inhibitors, biochemical (AID 1878)
[7] = molecular target: T5, Dual specificity protein phosphatase 6 (Rattus norvegicus, UniProt Q64346); assay: inhibition of rat DUSP6 enzyme activity – biochemical, in vitro, primary screen (AID 425)
T5 sequence (Q64346 whole entry): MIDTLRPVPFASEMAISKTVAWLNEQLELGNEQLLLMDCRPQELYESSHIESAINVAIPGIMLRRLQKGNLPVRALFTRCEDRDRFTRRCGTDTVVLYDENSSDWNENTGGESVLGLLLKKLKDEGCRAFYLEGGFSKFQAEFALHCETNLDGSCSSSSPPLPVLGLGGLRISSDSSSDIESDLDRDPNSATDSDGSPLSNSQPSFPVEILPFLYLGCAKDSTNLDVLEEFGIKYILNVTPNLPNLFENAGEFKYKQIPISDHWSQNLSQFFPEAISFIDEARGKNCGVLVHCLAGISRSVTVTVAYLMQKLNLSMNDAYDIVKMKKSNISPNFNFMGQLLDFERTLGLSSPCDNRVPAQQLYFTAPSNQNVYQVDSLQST

[8] = molecular target: Induced myeloid leukemia cell differentiation protein Mcl-1 (Homo sapiens, UniProt Q07820); type: functional
[9] = viability loss in THP-1 monocytes – THP-1 cells, cytotoxicity control for Vif-APOBEC3G degradation inhibitor project, dose response (AID 1117359); type: functional; details: THP-1
[10] = molecular target: T6, Mannose-6-phosphate isomerase (Homo sapiens, UniProt P34949); assay: MPI inhibition at elevated mannose 6-phosphate – biochemical, fluorescence intensity, high mannose 6-phosphate, primary screen (AID 1220)
T6 sequence (P34949 whole entry): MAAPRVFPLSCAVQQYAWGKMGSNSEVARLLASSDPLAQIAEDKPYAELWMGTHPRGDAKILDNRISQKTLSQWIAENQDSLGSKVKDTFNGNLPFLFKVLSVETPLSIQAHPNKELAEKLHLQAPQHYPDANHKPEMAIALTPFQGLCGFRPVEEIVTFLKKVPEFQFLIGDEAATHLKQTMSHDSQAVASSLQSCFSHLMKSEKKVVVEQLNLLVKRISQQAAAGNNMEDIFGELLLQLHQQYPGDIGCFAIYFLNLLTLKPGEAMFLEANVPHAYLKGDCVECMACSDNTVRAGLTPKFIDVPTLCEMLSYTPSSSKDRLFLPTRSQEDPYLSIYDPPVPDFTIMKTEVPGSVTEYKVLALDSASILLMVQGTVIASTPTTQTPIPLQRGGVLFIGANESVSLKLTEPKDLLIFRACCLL

[11] = molecular target: T7, Histone-lysine N-methyltransferase NSD2 (Homo sapiens, UniProt O96028); type: biochemical
T7 sequence (O96028 whole entry): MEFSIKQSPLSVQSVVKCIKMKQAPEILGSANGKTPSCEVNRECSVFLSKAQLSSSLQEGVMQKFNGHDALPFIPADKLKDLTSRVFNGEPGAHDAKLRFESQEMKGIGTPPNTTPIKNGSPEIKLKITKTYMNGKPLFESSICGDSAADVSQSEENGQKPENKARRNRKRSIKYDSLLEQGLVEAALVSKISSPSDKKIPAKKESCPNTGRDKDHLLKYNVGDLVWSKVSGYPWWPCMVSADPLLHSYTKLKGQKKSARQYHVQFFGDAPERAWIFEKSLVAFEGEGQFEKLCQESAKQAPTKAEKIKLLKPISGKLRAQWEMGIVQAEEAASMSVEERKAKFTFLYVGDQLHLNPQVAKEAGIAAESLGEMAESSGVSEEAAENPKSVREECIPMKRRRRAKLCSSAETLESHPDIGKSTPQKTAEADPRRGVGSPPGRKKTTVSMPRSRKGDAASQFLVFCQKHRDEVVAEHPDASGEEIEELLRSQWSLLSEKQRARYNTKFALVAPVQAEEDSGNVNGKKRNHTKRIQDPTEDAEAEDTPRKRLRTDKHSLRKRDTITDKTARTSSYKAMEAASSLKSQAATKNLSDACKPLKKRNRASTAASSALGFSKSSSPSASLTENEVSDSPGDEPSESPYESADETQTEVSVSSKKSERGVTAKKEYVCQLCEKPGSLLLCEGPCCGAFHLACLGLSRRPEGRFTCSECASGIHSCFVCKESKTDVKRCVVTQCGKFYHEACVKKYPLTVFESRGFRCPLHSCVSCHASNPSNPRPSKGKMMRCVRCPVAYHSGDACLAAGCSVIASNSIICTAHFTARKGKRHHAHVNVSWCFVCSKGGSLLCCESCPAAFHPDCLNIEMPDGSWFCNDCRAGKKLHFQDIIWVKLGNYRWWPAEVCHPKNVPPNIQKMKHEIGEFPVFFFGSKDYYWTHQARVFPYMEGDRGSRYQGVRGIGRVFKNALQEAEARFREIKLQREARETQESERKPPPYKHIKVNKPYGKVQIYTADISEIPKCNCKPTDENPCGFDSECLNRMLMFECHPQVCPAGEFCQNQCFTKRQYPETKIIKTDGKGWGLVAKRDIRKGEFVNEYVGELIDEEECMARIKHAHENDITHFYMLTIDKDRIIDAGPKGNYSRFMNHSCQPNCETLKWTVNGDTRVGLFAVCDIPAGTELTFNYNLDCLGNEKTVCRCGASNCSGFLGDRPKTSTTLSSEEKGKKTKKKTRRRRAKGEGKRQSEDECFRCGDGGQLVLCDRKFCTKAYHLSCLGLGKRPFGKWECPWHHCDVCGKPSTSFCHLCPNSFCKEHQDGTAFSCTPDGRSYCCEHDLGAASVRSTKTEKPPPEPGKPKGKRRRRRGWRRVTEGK

[12] = Trypanosoma cruzi growth suppression in host cells – NIH3T3 host cells, beta-gal luminescence, confirmation (AID 2044); type: functional, cell-based;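 also: intracellular parasites grown in NIH/3T3 mouse fibroblasts as host cells; luminescent beta-galactosidase reporter signal from transgenic T. cruzi replicating inside host cells; inhibitors lower the luminescence signal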
[13] = NIH3T3 cell viability loss – ATP luminescence, mouse fibroblasts, counter-screen, dose response (AID 2010); type: functional, cell-based;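 also: cells exposed to compound for about 90 hours before reading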

Ephrin type-A receptor 4, sequence (Q03137 whole entry): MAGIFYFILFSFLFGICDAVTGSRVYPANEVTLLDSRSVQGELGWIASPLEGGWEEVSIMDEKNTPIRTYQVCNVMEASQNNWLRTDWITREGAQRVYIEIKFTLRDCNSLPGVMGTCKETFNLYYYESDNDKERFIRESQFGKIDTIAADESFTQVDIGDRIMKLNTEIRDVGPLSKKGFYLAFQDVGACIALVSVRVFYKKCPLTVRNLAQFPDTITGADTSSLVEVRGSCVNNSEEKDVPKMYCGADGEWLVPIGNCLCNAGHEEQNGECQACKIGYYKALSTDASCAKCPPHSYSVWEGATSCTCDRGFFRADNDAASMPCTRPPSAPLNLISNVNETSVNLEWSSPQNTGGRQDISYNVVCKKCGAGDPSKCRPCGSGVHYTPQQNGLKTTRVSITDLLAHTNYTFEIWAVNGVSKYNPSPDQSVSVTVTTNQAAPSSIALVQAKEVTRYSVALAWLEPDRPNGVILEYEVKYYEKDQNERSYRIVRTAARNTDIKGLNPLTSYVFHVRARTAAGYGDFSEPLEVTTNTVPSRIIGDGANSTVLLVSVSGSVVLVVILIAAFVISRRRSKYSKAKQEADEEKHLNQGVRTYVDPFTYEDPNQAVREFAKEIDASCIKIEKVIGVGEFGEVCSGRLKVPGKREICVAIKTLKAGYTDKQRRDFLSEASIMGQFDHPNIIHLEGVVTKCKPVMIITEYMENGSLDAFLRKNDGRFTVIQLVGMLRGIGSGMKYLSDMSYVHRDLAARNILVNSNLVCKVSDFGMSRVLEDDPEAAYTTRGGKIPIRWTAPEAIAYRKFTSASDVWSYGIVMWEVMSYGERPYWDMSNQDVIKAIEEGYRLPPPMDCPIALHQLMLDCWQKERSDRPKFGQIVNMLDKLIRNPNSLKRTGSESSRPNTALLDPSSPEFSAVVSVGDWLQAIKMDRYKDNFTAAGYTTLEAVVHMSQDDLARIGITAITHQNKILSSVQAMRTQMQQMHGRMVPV
T4 sequence (P51452 whole entry): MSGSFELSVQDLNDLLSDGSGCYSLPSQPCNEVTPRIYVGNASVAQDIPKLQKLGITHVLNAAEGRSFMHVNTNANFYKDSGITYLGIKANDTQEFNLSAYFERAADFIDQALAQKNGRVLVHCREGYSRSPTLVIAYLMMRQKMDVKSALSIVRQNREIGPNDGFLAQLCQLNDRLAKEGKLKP
Estrogen receptor beta, sequence (Q92731 whole entry): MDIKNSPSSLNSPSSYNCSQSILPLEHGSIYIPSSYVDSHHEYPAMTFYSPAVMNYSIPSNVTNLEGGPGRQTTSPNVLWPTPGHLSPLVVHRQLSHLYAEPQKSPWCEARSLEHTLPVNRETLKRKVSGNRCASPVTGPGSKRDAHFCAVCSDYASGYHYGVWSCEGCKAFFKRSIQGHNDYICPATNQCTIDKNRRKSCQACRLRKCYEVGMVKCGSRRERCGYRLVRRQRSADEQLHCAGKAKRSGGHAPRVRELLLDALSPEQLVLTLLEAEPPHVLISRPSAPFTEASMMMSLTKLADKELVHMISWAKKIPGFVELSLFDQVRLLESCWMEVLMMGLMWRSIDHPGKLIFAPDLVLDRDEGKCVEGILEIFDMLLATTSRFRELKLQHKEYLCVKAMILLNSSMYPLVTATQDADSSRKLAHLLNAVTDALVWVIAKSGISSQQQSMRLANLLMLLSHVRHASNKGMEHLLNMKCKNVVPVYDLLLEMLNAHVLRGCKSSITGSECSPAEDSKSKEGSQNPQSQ
Voltage-gated inwardly rectifying potassium channel KCNH2, sequence (Q12809 whole entry): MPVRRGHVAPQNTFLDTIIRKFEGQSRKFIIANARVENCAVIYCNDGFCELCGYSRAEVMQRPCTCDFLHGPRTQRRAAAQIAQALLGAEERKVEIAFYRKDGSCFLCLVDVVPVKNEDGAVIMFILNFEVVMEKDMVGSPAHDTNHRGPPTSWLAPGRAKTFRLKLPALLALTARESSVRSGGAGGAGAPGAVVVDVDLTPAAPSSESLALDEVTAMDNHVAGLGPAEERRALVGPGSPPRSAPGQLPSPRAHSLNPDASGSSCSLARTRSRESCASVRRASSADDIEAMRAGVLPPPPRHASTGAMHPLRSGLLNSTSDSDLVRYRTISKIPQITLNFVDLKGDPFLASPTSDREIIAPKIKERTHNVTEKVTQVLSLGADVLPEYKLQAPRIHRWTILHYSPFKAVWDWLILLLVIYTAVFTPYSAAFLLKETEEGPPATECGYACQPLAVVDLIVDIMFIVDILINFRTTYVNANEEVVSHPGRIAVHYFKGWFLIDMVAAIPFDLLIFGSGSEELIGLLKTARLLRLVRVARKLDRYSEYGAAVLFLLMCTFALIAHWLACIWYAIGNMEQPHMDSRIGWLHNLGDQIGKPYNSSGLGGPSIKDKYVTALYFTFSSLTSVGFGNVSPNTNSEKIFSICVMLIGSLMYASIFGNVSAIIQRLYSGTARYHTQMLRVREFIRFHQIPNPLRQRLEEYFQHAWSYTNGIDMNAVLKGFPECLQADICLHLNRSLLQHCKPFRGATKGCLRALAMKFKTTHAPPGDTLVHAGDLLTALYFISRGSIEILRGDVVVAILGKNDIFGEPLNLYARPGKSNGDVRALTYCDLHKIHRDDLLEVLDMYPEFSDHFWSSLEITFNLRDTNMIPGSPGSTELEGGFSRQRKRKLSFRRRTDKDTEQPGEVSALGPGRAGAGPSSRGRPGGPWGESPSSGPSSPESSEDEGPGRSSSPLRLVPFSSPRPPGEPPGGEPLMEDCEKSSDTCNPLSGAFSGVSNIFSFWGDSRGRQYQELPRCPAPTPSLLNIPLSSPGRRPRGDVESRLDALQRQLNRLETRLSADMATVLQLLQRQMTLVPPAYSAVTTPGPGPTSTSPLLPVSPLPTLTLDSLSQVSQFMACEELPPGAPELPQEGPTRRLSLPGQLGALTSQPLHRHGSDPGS
Cytochrome P450 3A4, sequence (P08684 whole entry): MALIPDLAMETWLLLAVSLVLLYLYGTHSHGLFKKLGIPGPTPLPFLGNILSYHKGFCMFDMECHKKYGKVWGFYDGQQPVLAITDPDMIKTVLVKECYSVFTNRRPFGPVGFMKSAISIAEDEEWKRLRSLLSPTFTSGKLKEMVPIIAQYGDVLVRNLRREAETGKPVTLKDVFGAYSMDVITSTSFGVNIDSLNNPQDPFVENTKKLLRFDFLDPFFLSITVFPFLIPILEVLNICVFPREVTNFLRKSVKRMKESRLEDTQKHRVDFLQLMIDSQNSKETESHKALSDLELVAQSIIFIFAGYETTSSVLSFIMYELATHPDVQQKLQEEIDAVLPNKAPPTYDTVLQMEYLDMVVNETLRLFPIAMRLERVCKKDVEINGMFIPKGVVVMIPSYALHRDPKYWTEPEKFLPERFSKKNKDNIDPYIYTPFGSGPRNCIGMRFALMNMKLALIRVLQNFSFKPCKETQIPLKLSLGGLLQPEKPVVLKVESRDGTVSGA
Induced myeloid leukemia cell differentiation protein Mcl-1, sequence (Q07820 whole entry): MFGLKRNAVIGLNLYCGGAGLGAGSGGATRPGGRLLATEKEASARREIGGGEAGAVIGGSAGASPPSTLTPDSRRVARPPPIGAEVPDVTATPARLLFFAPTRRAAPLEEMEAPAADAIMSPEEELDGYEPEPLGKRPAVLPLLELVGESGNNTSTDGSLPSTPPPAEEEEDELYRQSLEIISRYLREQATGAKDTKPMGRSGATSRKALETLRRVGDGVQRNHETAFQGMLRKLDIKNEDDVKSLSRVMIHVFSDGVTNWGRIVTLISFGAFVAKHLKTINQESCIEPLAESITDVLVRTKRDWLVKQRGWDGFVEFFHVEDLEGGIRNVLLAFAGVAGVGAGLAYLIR

CCOC(=O)c1c(NC(C)=O)sc2c1CCC(C=O)=C2Sc1ccccc1
IC50 (Ephrin type-A receptor 4): 2.26 µM (active) | AC50 [1]: 3.85 µM (active) | IC50 [2]: 28.1 µM (inactive)

Cc1sc2ncnc(NCc3ccco3)c2c1C
IC50 (Estrogen receptor): 35.3 µM (not active) | IC50 (Estrogen receptor beta): 29.4 µM (active) | IC50 [3]: 13.2 µM (active)

O=C(NC(=S)Nc1cccc(Cl)c1N1CCCCC1)c1ccco1
EC50 [4]: 0.46 µM (active) | AC50 [1]: 4.12 µM (active) | AC50 (Cytochrome P450 3A4): 15.8 µM (inconclusive)

COC(=O)c1ccc(O)c2nc3c(C=O)c(O)cc(O)c3nc12 [LOMOFUNGIN]
IC50 [5]: 2.06 µM (active) | IC50 [6]: < 1.23 µM (inactive) | IC50 [7]: 48.2 µM (active) | IC50 [8]: 3.76 µM (active) | CC50 [9]: 8.31 µM (active)

CC1Cc2ccccc2N1C(=O)CSc1nnc(-c2ccc(S(=O)(=O)N3CCCC3)cc2)n1C (stereo unspecified)
IC50 [10]: > 50 µM (not active)

CC1(C)CCCC2=C1CC1C(=O)N(O)C(=O)C1C2 (stereo unspecified)
IC50 (Estrogen receptor beta): > 50 µM (not active)

CCN(CC)CCCN(Cc1cc2cc3c(cc2nc1O)OCCO3)C(=O)Nc1ccccc1
IC50 (Ephrin type-A receptor 4): 13.3 µM (active) | AC50 [11]: > 20 µM (inactive)

C=C1N(C)c2cc([N+](=O)[O-])c(N)cc2C1(C)C
EC50 [12]: 5.96 µM (active) | EC50 [13]: > 60 µM (not active) | IC50 [10]: 11.5 µM (active)

— ChEMBL document CHEMBL1201862, “PubChem BioAssay data set” (2004)
